Reference: US11053204B2, “Pyrimidinyloxy benzene derivatives as herbicides” (FMC Corporation, priority 2015, dated 2021)

Columns and labels:
Type in all cases: in vivo
[1] = test system: ragweed (common ragweed, Ambrosia elatior); assay: Test A postemergence, visual injury rating; settings: 0 to 100 scale, 0 is no effect, 100 is complete control, approximately 10 days
Method in brief: (§1)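 Pre- and postemergence greenhouse screen. Soil: loam + sand. Spray carrier: solvent mixture, non-phytotoxic, with surfactant. Post timing at 1–2 leaves, height 2–10 cm. Readout: visual injury on a 0–100 scale roughly 10 days after application, untreated plants as reference.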

[2] = test system: giant foxtail (Setaria faberii); assay: Test A postemergence, visual injury rating; settings: 0 to 100 scale, 0 is no effect, 100 is complete control, approximately 10 days
Method in brief: as §1

[3] = test system: barnyardgrass (Echinochloa crus-galli); assay: Test A postemergence, visual injury rating; settings: 0 to 100 scale, 0 is no effect, 100 is complete control, approximately 10 days
Method in brief: as §1

[4] = test system: Italian ryegrass (Lolium multiflorum); assay: Test A postemergence, visual injury rating; settings: 0 to 100 scale, 0 is no effect, 100 is complete control, approximately 10 days
Method in brief: as §1

kochia (Kochia scoparia) [5] = assay: Test A postemergence, visual injury rating; settings: 0 to 100 scale, 0 is no effect, 100 is complete control, approximately 10 days
Method in brief: as §1

corn (Zea mays) = assay: Test A postemergence, visual injury rating; settings: 0 to 100 scale, 0 is no effect, 100 is complete control, approximately 10 days
Method in brief: as §1

[6] = test system: wheat (Triticum aestivum); assay: Test A postemergence, visual injury rating; settings: 0 to 100 scale, 0 is no effect, 100 is complete control, approximately 10 days
Method in brief: as §1

[7] = test system: galium (catchweed bedstraw, Galium aparine); assay: Test A postemergence, visual injury rating; settings: 0 to 100 scale, 0 is no effect, 100 is complete control, approximately 10 days
Method in brief: as §1

[8] = test system: blackgrass (Alopecurus myosuroides); assay: Test A postemergence, visual injury rating; settings: 0 to 100 scale, 0 is no effect, 100 is complete control, approximately 10 days
Method in brief: as §1

[9] = test system: pigweed (Amaranthus retroflexus); assay: Test A postemergence, visual injury rating; settings: 0 to 100 scale, 0 is no effect, 100 is complete control, approximately 10 days
Method in brief: as §1

[10] = test system: barnyardgrass (Echinochloa crus-galli); assay: Test B flooded paddy test, plant response rating; settings: 250 g ai/ha; Flood; scale of 0 to 100 where 0 is no effect and 100 is complete control; 13 to 15 days
Method in brief: (§2)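 Ratings were visual and made relative to untreated controls after 13 to 15 greenhouse days.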

rice (Oryza sativa) = assay: Test B flooded paddy test, plant response rating; settings: 250 g ai/ha; Flood; scale of 0 to 100 where 0 is no effect and 100 is complete control; 13 to 15 days
Method in brief: as §2

[11] = test system: sedge, umbrella (small-flower umbrella sedge, Cyperus difformis); assay: Test B flooded paddy test, plant response rating; settings: 250 g ai/ha; Flood; scale of 0 to 100 where 0 is no effect and 100 is complete control; 13 to 15 days
Method in brief: as §2

[12] = test system: ducksalad (Heteranthera limosa); assay: Test B flooded paddy test, plant response rating; settings: 250 g ai/ha; Flood; scale of 0 to 100 where 0 is no effect and 100 is complete control; 13 to 15 days
Method in brief: as §2

[13] = test system: ragweed (common ragweed, Ambrosia elatior); assay: Test A preemergence, visual injury rating
Method in brief: as §1

[14] = test system: giant foxtail (Setaria faberii); assay: Test A preemergence, visual injury rating
Method in brief: as §1

[15] = test system: barnyardgrass (Echinochloa crus-galli); assay: Test A preemergence, visual injury rating
Method in brief: as §1

[16] = test system: Italian ryegrass (Lolium multiflorum); assay: Test A preemergence, visual injury rating
Method in brief: as §1

kochia (Kochia scoparia) [17] = assay: Test A preemergence, visual injury rating
Method in brief: as §1

[18] = test system: pigweed (Amaranthus retroflexus); assay: Test A preemergence, visual injury rating
Method in brief: as §1

[19] = 31 g ai/ha, 0 to 100 scale, 0 no effect, 100 complete control
[20] = 125 g ai/ha, 0 to 100 scale (0 no effect, 100 complete control)

SMILES	Ragweed plant response rating ([1]; 31 g ai/ha)	Ragweed plant response rating ([1]; 125 g ai/ha)	Foxtail, Giant plant response rating ([2]; 31 g ai/ha)	Foxtail, Giant plant response rating ([2]; 125 g ai/ha)	Barnyardgrass plant response rating ([3]; 31 g ai/ha)	Barnyardgrass plant response rating ([3]; 125 g ai/ha)	Ryegrass, Italian plant response rating ([4]; 31 g ai/ha)	Ryegrass, Italian plant response rating ([4]; 125 g ai/ha)	Kochia plant response rating (kochia (Kochia scoparia) [5]; 31 g ai/ha)	Kochia plant response rating (kochia (Kochia scoparia) [5]; 125 g ai/ha)	Corn plant response rating (corn (Zea mays); 31 g ai/ha)	Corn plant response rating (corn (Zea mays); 125 g ai/ha)	Wheat plant response rating ([6]; 31 g ai/ha)	Wheat plant response rating ([6]; 125 g ai/ha)	Galium plant response rating ([7]; 31 g ai/ha)	Galium plant response rating ([7]; 125 g ai/ha)	Blackgrass plant response rating ([8]; 31 g ai/ha)	Blackgrass plant response rating ([8]; 125 g ai/ha)	Pigweed plant response rating ([9]; 31 g ai/ha)	Pigweed plant response rating ([9]; 125 g ai/ha)	other results
COc1cccc(Oc2ncc(Cl)cn2)c1C(=O)OCCC(F)(F)F [Compound 112]	20	40	0	30	0	10	0	0	0	30	0	0	0	0	60	80	0	30	40	70	Plant response rating, Barnyardgrass [10]: 20; Plant response rating, Rice (rice (Oryza sativa)): 40; Plant response rating, Sedge, Umbrella [11]: 100; Plant response rating, Ducksalad [12]: 100; Plant response rating, Ragweed [13, 19]: 0; Plant response rating, Ragweed [13, 20]: 0; Plant response rating, Foxtail, Giant [14, 19]: 0; Plant response rating, Foxtail, Giant [14, 20]: 70; Plant response rating, Barnyardgrass [15, 19]: 0; Plant response rating, Barnyardgrass [15, 20]: 80; Plant response rating, Ryegrass, Italian [16, 19]: 10; Plant response rating, Ryegrass, Italian [16, 20]: 0; Plant response rating, Kochia (kochia (Kochia scoparia) [17]; [19]): 0; Plant response rating, Kochia (kochia (Kochia scoparia) [17]; [20]): 50; Plant response rating, Pigweed [18, 19]: 60; Plant response rating, Pigweed [18, 20]: 100
O=C(OCCC(F)(F)F)c1c(Oc2ncc(Cl)cn2)cccc1C(F)(F)F [Compound 113]	0	20	10	50	10	40	0	30	80	100	10	20	0	20	40	80	0	40	90	100	Plant response rating, Barnyardgrass [10]: 65; Plant response rating, Rice (rice (Oryza sativa)): 20; Plant response rating, Sedge, Umbrella [11]: 90; Plant response rating, Ducksalad [12]: 80; Plant response rating, Ragweed [13, 19]: 0; Plant response rating, Ragweed [13, 20]: 0; Plant response rating, Foxtail, Giant [14, 19]: 60; Plant response rating, Foxtail, Giant [14, 20]: 100; Plant response rating, Barnyardgrass [15, 19]: 0; Plant response rating, Barnyardgrass [15, 20]: 90; Plant response rating, Ryegrass, Italian [16, 19]: 10; Plant response rating, Ryegrass, Italian [16, 20]: 40; Plant response rating, Kochia (kochia (Kochia scoparia) [17]; [19]): 10; Plant response rating, Kochia (kochia (Kochia scoparia) [17]; [20]): 60; Plant response rating, Pigweed [18, 19]: 100; Plant response rating, Pigweed [18, 20]: 100
CCCCC(C#N)c1c(Br)cccc1Oc1ncc(Cl)cn1 (stereo not drawn) [Compound 114]	0	20	0	20	0	10	0	10	20	80	10	20	0	10	50	80	0	10	50	100	Plant response rating, Barnyardgrass [10]: 0; Plant response rating, Rice (rice (Oryza sativa)): 0; Plant response rating, Sedge, Umbrella [11]: 90; Plant response rating, Ducksalad [12]: 40; Plant response rating, Ragweed [13, 19]: 20; Plant response rating, Ragweed [13, 20]: 80; Plant response rating, Foxtail, Giant [14, 19]: 10; Plant response rating, Foxtail, Giant [14, 20]: 90; Plant response rating, Barnyardgrass [15, 19]: 0; Plant response rating, Barnyardgrass [15, 20]: 20; Plant response rating, Ryegrass, Italian [16, 19]: 0; Plant response rating, Ryegrass, Italian [16, 20]: 0; Plant response rating, Kochia (kochia (Kochia scoparia) [17]; [19]): 0; Plant response rating, Kochia (kochia (Kochia scoparia) [17]; [20]): 10; Plant response rating, Pigweed [18, 19]: 0; Plant response rating, Pigweed [18, 20]: 30
CC(C)Oc1cccc(Oc2ncc(Cl)cn2)c1C(=O)OCCC(F)(F)F [Compound 115]	0	0	0	0	0	0	0	0	0	0	0	10	0	0	20	20	0	20	10	40	Plant response rating, Barnyardgrass [10]: 0; Plant response rating, Rice (rice (Oryza sativa)): 0; Plant response rating, Sedge, Umbrella [11]: 0; Plant response rating, Ducksalad [12]: 0; Plant response rating, Ragweed [13, 19]: 20; Plant response rating, Ragweed [13, 20]: 0; Plant response rating, Foxtail, Giant [14, 19]: 0; Plant response rating, Foxtail, Giant [14, 20]: 0; Plant response rating, Barnyardgrass [15, 19]: 0; Plant response rating, Barnyardgrass [15, 20]: 0; Plant response rating, Ryegrass, Italian [16, 19]: 0; Plant response rating, Ryegrass, Italian [16, 20]: 0; Plant response rating, Kochia (kochia (Kochia scoparia) [17]; [19]): 70; Plant response rating, Kochia (kochia (Kochia scoparia) [17]; [20]): 0; Plant response rating, Pigweed [18, 19]: 0; Plant response rating, Pigweed [18, 20]: 0
CCOc1cccc(Oc2ncc(Cl)cn2)c1C(=O)OCCC(F)(F)F [Compound 116]	0	0	0	20	0	10	0	0	0	10	0	10	0	0	30	60	0	0	40	50	Plant response rating, Barnyardgrass [10]: 30; Plant response rating, Rice (rice (Oryza sativa)): 70; Plant response rating, Sedge, Umbrella [11]: 90; Plant response rating, Ducksalad [12]: 75; Plant response rating, Ragweed [13, 19]: 30; Plant response rating, Ragweed [13, 20]: 0; Plant response rating, Foxtail, Giant [14, 19]: 0; Plant response rating, Foxtail, Giant [14, 20]: 30; Plant response rating, Barnyardgrass [15, 19]: 0; Plant response rating, Barnyardgrass [15, 20]: 0; Plant response rating, Ryegrass, Italian [16, 19]: 0; Plant response rating, Ryegrass, Italian [16, 20]: 0; Plant response rating, Kochia (kochia (Kochia scoparia) [17]; [19]): 0; Plant response rating, Kochia (kochia (Kochia scoparia) [17]; [20]): 0; Plant response rating, Pigweed [18, 19]: 50; Plant response rating, Pigweed [18, 20]: 70
